# Source: PMC4773034 (Journal of biomolecular screening, 2012)
# Molecular target: EndA(H160G) (Streptococcus pneumoniae serotype 4, UniProt P0A3S3, H160G)
# Test: PicoGreen nuclease assay
# Assay type: biochemical
# Conditions: 25 mM imidazole, 30 min reaction, top concentration 30 µM
row,SMILES,IC50 (stated in words)
1,NC(Cc1cc(O)c(O)cc1O)C(=O)O (racemic) [6-hydroxy-DL-DOPA],nanomolar range
2,CC(C)c1ccc2c(c1)c(SC(C)(C)C)c(CC(C)(C)C(=O)[O-])n2Cc1ccc(Cl)cc1.[Na+] [MK-886],nanomolar range
3,O=c1c(O)c(-c2cc(O)c(O)c(O)c2)oc2cc(O)cc(O)c12 [Myricetin],nanomolar range
